From US5254563A, “Beta-carbolines, process for their production and their use in pharmaceutical agents” (Schering Aktiengesellschaft, priority 1989, dated 1993)

Experiments:
[1] = Metabolic stability in human liver homogenate; type: in vitro ADME; conditions: 2 hours at 37° C., HPLC/fluorimetry, read-out: Metabolic Stability (substance remaining)
Method: The metabolic stability is determined by a homogenate of hepatic tissue in physiological common salt solution being incubated with the test substance for 0 or 2 hours at 37° C. Then, the incubation batch is extracted and the content of test substance in the extract is determined by HPLC/fluorimetry. The substance remaining after 2 hours in comparison with 0 hours is expressed in percent stability.

benzodiazepine receptors = assay: Inhibition of the H^3-BD binding in vivo (displacement of radioactively-labeled flunitrazepam); conditions: mice, i.p.; 3H-flunitrazepam i.v. after 15 minutes, forebrains removed after another 20 minutes; dose reducing specific binding to 50% of control

Row | Structure (SMILES) | remaining at 2 h [1] [%] | Inhibition of the H^3 -BD binding In vivo ED50 (benzodiazepine receptors)
1 | COCc1c(C(=O)c2ccccc2)ncc2[nH]c3ccc(OCc4ccccc4)cc3c12 [A, 6-Benzyloxy-4-methoxymethyl-3-benzoyl-beta-carboline] | 72 | 5.0 mg/kg
2 | COCc1c(C(=O)Oc2ccccc2)ncc2[nH]c3ccc(OCc4ccccc4)cc3c12 [B, 6benzyloxy-4-methoxymethyl-beta-carboline-3-carboxylic acid phenyl ester, reference compound] | – | greater than 90 mg/kg
